This experiment concerns the target IgE-Tb / FcεRIα-Y131A-AF488 (Homo sapiens, UniProt P01854). In words: IgE-Tb / FcεRIα-Y131A-AF488 FRET assay (protocol for examples 1 to 233). The format is binding. The settings on record: examples 1 to 233: 5 nM IgE-Tb, 25 nM FcεRIα-Y131A-AF488, incubated 2 hours at room temperature; read-out: Y131A FRET IC50 range. In a few lines:
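Compounds (top final concentration usually 10 μM, 3-fold, 10 points, 2% DMSO) incubated 2 h at room temperature with IgE-Tb (5 nM) and FcεRIα-Y131A-AF488 (25 nM). Background from 200 nM unlabelled receptor subtracted; FRET ratio 520/495 nm after 330 nm excitation gave percent inhibition, fitted four-parameter for IC50.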

Each structure is given as a SMILES string. Where only a bound is given, the exact number is not on record here.

Chain of IgE-Tb / FcεRIα-Y131A-AF488 (P01854 1-427 limits assumed, stated change not applied): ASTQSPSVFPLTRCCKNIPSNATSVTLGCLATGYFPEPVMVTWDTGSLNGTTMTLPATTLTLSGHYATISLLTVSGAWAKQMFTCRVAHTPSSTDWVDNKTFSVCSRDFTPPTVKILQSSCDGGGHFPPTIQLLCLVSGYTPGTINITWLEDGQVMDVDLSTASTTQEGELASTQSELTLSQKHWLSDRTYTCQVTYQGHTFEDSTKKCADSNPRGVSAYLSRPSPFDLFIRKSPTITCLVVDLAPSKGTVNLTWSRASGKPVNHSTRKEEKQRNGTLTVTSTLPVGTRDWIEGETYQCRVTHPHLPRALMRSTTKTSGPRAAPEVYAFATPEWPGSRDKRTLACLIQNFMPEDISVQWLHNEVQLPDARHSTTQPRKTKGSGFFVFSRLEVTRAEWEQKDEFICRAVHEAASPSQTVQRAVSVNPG

`CCNc1nnc(COC)n1C1CCc2sc(NC(=O)C3CC3)c(C(=O)NCC3CC3)c2C1` (stereo not shown) [Example 179, 2-(Cyclopropanecarbonylamino)-N-(cyclopropylmethyl)-5-[3-(ethylamino)-5-(methoxymethyl)-1,2,4-triazol-4-yl]-4,5,6,7-tetrahydrobenzothiophene-3-carboxamide]: the IC50 was in the range of 1000 to 10000 nM.
Under `O=C(NCC1CC1)c1c(NC(=O)C2CC2)sc2c1CC(Nc1n[nH]c(-c3cccnc3)n1)CC2` (stereo not shown) [Example 180, 2-(Cyclopropanecarbonylamino)-N-(cyclopropylmethyl)-5-[[5-(3-pyridyl)-1H-1,2,4-triazol-3-yl]amino]-4,5,6,7-tetrahydrobenzothiophene-3-carboxamide] stands less than 1000 nM; under `Cc1ccc(OC(=O)NC2CCc3sc(NC(=O)C4CC4)c(C(=O)NCC4CC4)c3C2)cc1` (stereo not shown) [Example 181, p-Tolyl N-[2-(cyclopropanecarbonylamino)-3-(cyclopropylmethylcarbamoyl)-4,5,6,7-tetrahydrobenzothiophen-5-yl]carbamate], less than 1000 nM; under `O=C(NCC1CC1)c1c(NC(=O)C2CC2)sc2c1CC(Nc1ncc3ccccc3n1)CC2` (stereo not shown) [Example 182, 2-(Cyclopropanecarbonylamino)-N-(cyclopropylmethyl)-5-(quinazolin-2-ylamino)-4,5,6,7-tetrahydrobenzothiophene-3-carboxamide], less than 1000 nM.
As for `O=C(NCC1CC1)c1c(NC(=O)C2CC2)sc2c1CC(Nc1nc3ccccc3o1)CC2` (stereo not shown) [Example 183, 5-(1,3-Benzoxazol-2-ylamino)-2-(cyclopropanecarbonylamino)-N-(cyclopropylmethyl)-4,5,6,7-tetrahydrobenzothiophene-3-carboxamide], the IC50 was less than 1000 nM.
Turning to `CCNc1nnc(CO)n1C1CCc2sc(NC(=O)C3CC3)c(C(=O)NCC3CC3)c2C1` (stereo not shown) [Example 184, 2-(Cyclopropanecarbonylamino)-N-(cyclopropylmethyl)-5-[3-(ethylamino)-5-(hydroxymethyl)-1,2,4-triazol-4-yl]-4,5,6,7-tetrahydrobenzothiophene-3-carboxamide], the IC50 was less than 1000 nM.
Under `Cc1cc(Nc2nncn2C2CCc3sc(NC(=O)C4CC4)c(C(=O)NC4CC(F)(F)C4)c3C2)n(C)n1` (stereo not shown) [Example 185, 2-(cyclopropanecarbonylamino)-N-(3,3-difluorocyclobutyl)-5-[3-[(2,5-dimethylpyrazol-3-yl)amino]-1,2,4-triazol-4-yl]-4,5,6,7-tetrahydrobenzothiophene-3-carboxamide] stands less than 1000 nM.
Under `Nc1nccn1[C@H]1CCc2sc(NC(=O)C3CC3)c(C(=O)NCC3CC3)c2C1` [Example 186, (5S)-5-(2-Aminoimidazol-1-yl)-2-(cyclopropanecarbonylamino)-N-(cyclopropylmethyl)-4,5,6,7-tetrahydrobenzothiophene-3-carboxamide] stands less than 1000 nM; under `Nc1noc(=O)n1C1CCc2sc(NC(=O)C3CC3)c(C(=O)NCC3CC3)c2C1` (stereo not shown) [Example 187, 5-(3-Amino-5-oxo-1,2,4-oxadiazol-4-yl)-2-(cyclopropanecarbonylamino)-N-(cyclopropylmethyl)-4,5,6,7-tetrahydrobenzothiophene-3-carboxamide], less than 1000 nM; under `CCNc1nnc(C)n1C1CCc2sc(NC(=O)C3CC3)c(C(=O)NCC3CC3)c2C1` (stereo not shown) [Example 188, 2-(Cyclopropanecarbonylamino)-N-(cyclopropylmethyl)-5-[3-(ethylamino)-5-methyl-1,2,4-triazol-4-yl]-4,5,6,7-tetrahydrobenzothiophene-3-carboxamide], less than 1000 nM.
Then `O=C(NCC1CC1)c1c(NC(=O)C2CC2)sc2c1CC(Nc1ncccn1)CC2` (stereo not shown) [Example 191, 2-(Cyclopropanecarbonylamino)-N-(cyclopropylmethyl)-5-(pyrimidin-2-ylamino)-4,5,6,7-tetrahydrobenzothiophene-3-carboxamide], with less than 1000 nM; and `O=C(NCC1CC1)c1c(NC(=O)C2CC2)sc2c1CC(Nc1nnco1)CC2` (stereo not shown) [Example 192, 2-(Cyclopropanecarbonylamino)-N-(cyclopropylmethyl)-5-(1,3,4-oxadiazol-2-ylamino)-4,5,6,7-tetrahydrobenzothiophene-3-carboxamide], with less than 1000 nM.
For the compound `Cc1cc(Nc2nncn2C2CCc3sc(NC(=O)C4CC4)c(C(=O)NC4CC(F)C4)c3C2)n(C)n1` (stereo not shown) [Example 193, 2-(cyclopropanecarbonylamino)-5-[3-[(2,5-dimethylpyrazol-3-yl)amino]-1,2,4-triazol-4-yl]-N-(3-fluorocyclobutyl)-4,5,6,7-tetrahydrobenzothiophene-3-carboxamide], the IC50 was less than 1000 nM.
Then `Cc1ccc(N2C(=O)CN=C2NC2CCc3sc(NC(=O)C4CC4)c(C(=O)NCC4CC4)c3C2)cc1` (stereo not shown) [Example 194, 2-(Cyclopropanecarbonylamino)-N-(cyclopropylmethyl)-5-[[5-oxo-1-(p-tolyl)-4H-imidazol-2-yl]amino]-4,5,6,7-tetrahydrobenzothiophene-3-carboxamide], with 1000 to 10000 nM.
Then `CCN(C)c1c(NC2CCc3sc(NC(=O)C4CC4)c(C(=O)NCC4CC4)c3C2)c(=O)c1=O` (stereo not shown) [Example 195, 2-(Cyclopropanecarbonylamino)-N-(cyclopropylmethyl)-5-[[2-[ethyl(methyl)amino]-3,4-dioxo-cyclobuten-1-yl]amino]-4,5,6,7-tetrahydrobenzothiophene-3-carboxamide], with less than 1000 nM; and `CS(=N)(=O)NC1CCc2sc(NC(=O)C3CC3)c(C(=O)NCC3CC3)c2C1` (stereo not shown) [Example 196, 2-(Cyclopropanecarbonylamino)-N-(cyclopropylmethyl)-5-[(methylsulfonimidoyl)amino]-4,5,6,7-tetrahydrobenzothiophene-3-carboxamide], with 1000 to 10000 nM.
On to `CC(=NC#N)NC1CCc2sc(NC(=O)C3CC3)c(C(=O)NCC3CC3)c2C1` (stereo not shown) [Example 197, 5-[[N-Cyano-C-methyl-carbonimidoyl]amino]-2-(cyclopropanecarbonylamino)-N-(cyclopropylmethyl)-4,5,6,7-tetrahydrobenzothiophene-3-carboxamide], for which the IC50 was less than 1000 nM.
Consider `O=C(NCC1CC1)c1c(NC(=O)C2CC2)sc2c1CC(n1cnnn1)CC2` (stereo not shown) [Example 198, 2-(Cyclopropanecarbonylamino)-N-(cyclopropylmethyl)-5-(tetrazol-1-yl)-4,5,6,7-tetrahydrobenzothiophene-3-carboxamide], for which the IC50 is less than 1000 nM.
Then `Cc1cc(Nc2nncn2C2CCc3sc(NC(=O)C4CC4)c(C(=O)NCC(C)(C)F)c3C2)n(C)n1` (stereo not shown) [Example 200, 2-(cyclopropanecarbonylamino)-5-[3-[(2,5-dimethylpyrazol-3-yl)amino]-1,2,4-triazol-4-yl]-N-(2-fluoro-2-methyl-propyl)-4,5,6,7-tetrahydrobenzothiophene-3-carboxamide], with less than 1000 nM.
As to `O=C(NCC1CC1)c1c(NC(=O)C2CC2)sc2c1CC(N1CCOCC1)CC2` (stereo not shown) [Example 201, 2-(Cyclopropanecarbonylamino)-N-(cyclopropylmethyl)-5-morpholino-4,5,6,7-tetrahydrobenzothiophene-3-carboxamide], the IC50 is 1000 to 10000 nM.
Then `CCNc1nnc(C(F)(F)F)n1C1CCc2sc(NC(=O)C3CC3)c(C(=O)NCC3CC3)c2C1` (stereo not shown) [Example 202, 2-(Cyclopropanecarbonylamino)-N-(cyclopropylmethyl)-5-[3-(ethylamino)-5-(trifluoromethyl)-1,2,4-triazol-4-yl]-4,5,6,7-tetrahydrobenzothiophene-3-carboxamide], with 1000 to 10000 nM; and `O=C(NCC1CC1)c1c(NC(=O)C2CC2)sc2c1CC(Nc1nc(=O)cc[nH]1)CC2` (stereo not shown) [Example 203, 2-(Cyclopropanecarbonylamino)-N-(cyclopropylmethyl)-5-[(4-oxo-1H-pyrimidin-2-yl)amino]-4,5,6,7-tetrahydrobenzothiophene-3-carboxamide], with less than 1000 nM; and `CC(C)NS(=O)(=O)NC1CCc2sc(NC(=O)C3CC3)c(C(=O)NCC3CC3)c2C1` (stereo not shown) [Example 204, 2-(Cyclopropanecarbonylamino)-N-(cyclopropylmethyl)-5-(isopropylsulfamoylamino)-4,5,6,7-tetrahydrobenzothiophene-3-carboxamide], with 1000 to 10000 nM.
Then `N#CN=C(NC1CCc2sc(NC(=O)C3CC3)c(C(=O)NCC3CC3)c2C1)NN1CCOCC1` (stereo not shown) [Example 205, 5-[[N′-Cyano-N-morpholino-carbamimidoyl]amino]-2-(cyclopropanecarbonylamino)-N-(cyclopropylmethyl)-4,5,6,7-tetrahydrobenzothiophene-3-carboxamide], with 1000 to 10000 nM; and `CC(=O)NC1CCc2sc(NC(=O)C3CC3)c(C(=O)NCC3CC3)c2C1` (stereo not shown) [Example 206, 5-Acetamido-2-(cyclopropanecarbonylamino)-N-(cyclopropylmethyl)-4,5,6,7-tetrahydrobenzothiophene-3-carboxamide], with 1000 to 10000 nM; and `CS(=O)(=O)NC1CCc2sc(NC(=O)C3CC3)c(C(=O)NCC3CC3)c2C1` (stereo not shown) [Example 207, 2-(Cyclopropanecarbonylamino)-N-(cyclopropylmethyl)-5-(methanesulfonamido)-4,5,6,7-tetrahydrobenzothiophene-3-carboxamide], with less than 1000 nM.
Then `CONC(=NC#N)NC1CCc2sc(NC(=O)C3CC3)c(C(=O)NCC3CC3)c2C1` (stereo not shown) [Example 208, 5-[[N′-Cyano-N-methoxy-carbamimidoyl]amino]-2-(cyclopropanecarbonylamino)-N-(cyclopropylmethyl)-4,5,6,7-tetrahydrobenzothiophene-3-carboxamide], with less than 1000 nM; and `COc1ccc(NC(=O)NC2CCc3sc(NC(=O)C4CC4)c(C(=O)NCC(C)C)c3C2)cc1` (stereo not shown) [Example 209, 2-(Cyclopropanecarbonylamino)-N-isobutyl-5-[(4-methoxyphenyl)carbamoylamino]-4,5,6,7-tetrahydrobenzothiophene-3-carboxamide], with less than 1000 nM.

The values above are taken from patent US12018021B2 (UCB Biopharma SRL, priority 2018, dated 2024).
